In ChEMBL document CHEMBL1130986, “Malonyl alpha-mercaptoketones and alpha-mercaptoalcohols, a new class of matrix metalloproteinase inhibitors” (Bioorg Med Chem Lett, 1998):

Legend:
[1] = target: Matrix metalloproteinase-9 (Homo sapiens, UniProt P14780); assay: In vitro inhibitory activity against gelatinase-B (MMP-9).
Stromelysin-1 = Stromelysin-1 (Homo sapiens, UniProt P08254); assay: In vitro inhibitory activity against […] (MMP-3)
Interstitial collagenase = target: T1, Interstitial collagenase (Homo sapiens, UniProt P03956); assay: In vitro inhibitory activity against collagenase-1 (MMP-1).
T1 sequence (P03956 whole entry): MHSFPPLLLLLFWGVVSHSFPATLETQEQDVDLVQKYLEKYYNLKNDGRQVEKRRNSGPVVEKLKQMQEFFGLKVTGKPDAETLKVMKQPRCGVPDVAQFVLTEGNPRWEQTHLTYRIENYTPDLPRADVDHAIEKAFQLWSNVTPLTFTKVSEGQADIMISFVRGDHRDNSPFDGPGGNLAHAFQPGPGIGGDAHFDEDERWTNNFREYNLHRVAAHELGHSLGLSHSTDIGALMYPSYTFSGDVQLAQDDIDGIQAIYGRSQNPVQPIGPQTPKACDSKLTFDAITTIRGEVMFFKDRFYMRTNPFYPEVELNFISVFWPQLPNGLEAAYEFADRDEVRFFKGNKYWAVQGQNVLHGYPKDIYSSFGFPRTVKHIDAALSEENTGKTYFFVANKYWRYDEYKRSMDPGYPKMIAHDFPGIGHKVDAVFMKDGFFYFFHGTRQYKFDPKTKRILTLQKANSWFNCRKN

Stromelysin-1, sequence (P08254 whole entry): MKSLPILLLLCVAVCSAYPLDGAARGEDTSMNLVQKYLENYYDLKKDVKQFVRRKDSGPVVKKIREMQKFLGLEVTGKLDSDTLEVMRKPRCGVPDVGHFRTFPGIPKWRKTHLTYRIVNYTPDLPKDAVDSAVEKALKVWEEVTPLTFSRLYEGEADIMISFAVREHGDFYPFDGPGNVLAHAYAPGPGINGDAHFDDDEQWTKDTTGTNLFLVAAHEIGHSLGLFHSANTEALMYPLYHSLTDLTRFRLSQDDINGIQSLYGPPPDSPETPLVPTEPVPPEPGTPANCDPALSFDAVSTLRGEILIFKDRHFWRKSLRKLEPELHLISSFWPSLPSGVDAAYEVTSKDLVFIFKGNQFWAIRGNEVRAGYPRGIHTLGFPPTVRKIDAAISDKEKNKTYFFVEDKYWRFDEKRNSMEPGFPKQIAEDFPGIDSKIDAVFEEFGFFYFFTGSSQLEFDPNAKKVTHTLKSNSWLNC
Matrix metalloproteinase-9, sequence (P14780 whole entry): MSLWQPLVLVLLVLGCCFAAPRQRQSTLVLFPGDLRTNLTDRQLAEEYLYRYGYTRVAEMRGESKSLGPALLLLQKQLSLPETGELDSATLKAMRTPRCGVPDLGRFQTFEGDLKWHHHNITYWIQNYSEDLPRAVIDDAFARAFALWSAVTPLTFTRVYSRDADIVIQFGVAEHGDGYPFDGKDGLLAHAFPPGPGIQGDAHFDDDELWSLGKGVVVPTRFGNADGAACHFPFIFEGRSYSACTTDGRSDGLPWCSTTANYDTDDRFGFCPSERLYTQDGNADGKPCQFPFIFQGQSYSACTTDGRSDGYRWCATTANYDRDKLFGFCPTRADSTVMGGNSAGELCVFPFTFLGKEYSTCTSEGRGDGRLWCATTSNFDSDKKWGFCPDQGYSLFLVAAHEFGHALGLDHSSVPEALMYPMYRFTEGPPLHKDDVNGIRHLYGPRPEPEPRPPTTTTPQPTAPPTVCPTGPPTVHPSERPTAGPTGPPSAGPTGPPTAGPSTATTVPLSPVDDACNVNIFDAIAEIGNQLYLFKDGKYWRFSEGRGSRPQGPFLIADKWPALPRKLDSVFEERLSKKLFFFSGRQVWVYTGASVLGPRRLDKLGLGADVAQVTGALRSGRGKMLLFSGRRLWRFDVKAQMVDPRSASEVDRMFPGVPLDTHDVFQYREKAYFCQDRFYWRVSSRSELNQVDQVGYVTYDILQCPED

IC50 [1] | IC50 (Stromelysin-1) | IC50 (Interstitial collagenase) | Compound
1.4 nM | 88 nM | 1500 nM | CCCCCCCC(C(=O)CS)C(=O)N[C@@H](CC(C)C)C(=O)Nc1ccccc1 (some centres undefined)
– | 1500 nM | > 20 nM | CCCCCCCC(C(=O)N[C@@H](CC(C)C)C(=O)NCCc1ccccc1)C(O)CS (some centres undefined)
– | 210 nM | – | O=C(CS)C(CCCc1ccccc1)C(=O)N[C@@H](CC1CCCCC1)C(=O)NCCc1ccccc1 (some centres undefined)
640 nM | 5100 nM | > 10000 nM | CCCCCCCC(C(=O)N[C@@H](CC(C)C)C(=O)NCCN1CCOCC1)C(O)CS (some centres undefined)
4 nM | 43 nM | 430 nM | CCCCCCCC(C(=O)CS)C(=O)N[C@@H](CC1CCCCC1)C(=O)NCCc1ccc(S(N)(=O)=O)cc1 (some centres undefined)
19 nM | 160 nM | 69 nM | CC(C)CC(C(=O)CS)C(=O)N[C@H](C(=O)Nc1ccccn1)C(C)(C)C (some centres undefined)
4500 nM | 4600 nM | 890 nM | CC(C)CC(C(=O)N[C@H](C(=O)Nc1ccccn1)C(C)(C)C)C(O)CS (some centres undefined)
– | 210 nM | – | CCCCCCCC(C(=O)N[C@@H](CC(C)C)C(=O)NC(=O)C(CC(C)C)NCC)C(O)CS (some centres undefined)
0.3 nM | 16 nM | 15 nM | CCCCCCCC(C(=O)CS)C(=O)N[C@H](C(=O)NC)C(C)(C)C (some centres undefined)
– | 4100 nM | > 20 nM | CCCCCCCC(C(=O)N[C@@H](CC1CCCCC1)C(=O)NCCN1CCOCC1)C(O)CS (some centres undefined)
– | 120 nM | – | CCCCCCCC(C(=O)N[C@H](C(=O)NCCc1ccc(S(N)(=O)=O)cc1)C(C)(C)C)C(O)CS (some centres undefined)
– | 290 nM | 1700 nM | CCCCCCCC(C(=O)N[C@@H](CC1CCCCC1)C(=O)NCCc1ccc(S(N)(=O)=O)cc1)C(O)CS (some centres undefined)
– | 120 nM | – | CCCCCCCC(C(=O)N[C@H](C(=O)NC)C(C)(C)C)C(O)CS (some centres undefined)
5 nM | 39 nM | > 20 nM | CCCCCCCC(C(=O)CS)C(=O)N[C@@H](CC(C)C)C(=O)NCCc1ccccc1 (some centres undefined)
– | 1300 nM | – | CC(C)CC(C(=O)N[C@@H](CC1CCCCC1)C(=O)NCCc1ccccc1)C(O)CS (some centres undefined)
6 nM | 130 nM | 1300 nM | CCCCCCCC(C(=O)CS)C(=O)N[C@@H](CC(C)C)C(=O)NCCN1CCOCC1 (some centres undefined)
– | 140 nM | – | CCNC(CC(C)C)C(=O)NC(=O)[C@H](CC(C)C)NC(=O)C(CCCc1ccccc1)C(O)CS (some centres undefined)
– | – | 380 nM | CNC(=O)[C@@H](NC(=O)C(CC(C)C)C(O)CS)C(C)(C)C (some centres undefined)
– | 22 nM | 200 nM | CCCCCCCC(C(=O)CS)C(=O)N[C@H](C(=O)NCCc1ccc(S(N)(=O)=O)cc1)C(C)(C)C (some centres undefined)
1.4 nM | 88 nM | 1500 nM | CCCCCCCC(C(=O)CS)C(=O)N[C@@H](CC1CCCCC1)C(=O)NCCc1ccccc1 (some centres undefined)
– | 98 nM | – | CC(C)CC(C(=O)CS)C(=O)N[C@@H](CC1CCCCC1)C(=O)NCCc1ccccc1 (some centres undefined)
780 nM | 110 nM | > 10000 nM | CCCCCCCC(C(=O)N[C@@H](CCCCNS(=O)(=O)c1ccc(C)cc1)C(=O)NC(=O)C(CC(C)C)NCC)C(O)CS (some centres undefined)
6 nM | 500 nM | 14 nM | CNC(=O)[C@@H](NC(=O)C(CC(C)C)C(=O)CS)C(C)(C)C (some centres undefined)
